Laboratory results taken from the NIST ThermoML archive (doi:10.1021/je400667c).
± gives the expanded uncertainty stated by the source.

Assay: mn = molality of the nth substance listed, in mol/kg
Details: for surface tension liquid-gas: Maximal bubble pressure; for mass density / electrical conductivity: 100 kPa, Liquid; for mass density: Vibrating tube method; for electrical conductivity: Frequency=0.003 MHz, Alternating current cell with electrodes

CCCCCCCCCCCCCCCCOCCOCCOCCOCCOCCOCCOCCOCCOCCOCCOCCOCCOCCOCCOCCOCCOCCOCCOCCOCCO + O
Details | mass density [kg/m3] | surface tension liquid-gas [mN/m]
298.15 K, m1 = 0.0005 | 995.7 ± 0.11 | –
298.15 K, m1 = 0.00199 | – | 68.7 ± 0.4
298.15 K, m1 = 0.00251 | – | 66 ± 0.4
298.15 K, m1 = 0.00316 | – | 64.2 ± 0.4
298.15 K, m1 = 0.00398 | – | 63.2 ± 0.4
298.15 K, m1 = 0.00501 | – | 61.3 ± 0.4
298.15 K, m1 = 0.00708 | – | 59.4 ± 0.4
298.15 K, m1 = 0.01 | – | 56.9 ± 0.4
298.15 K, m1 = 0.01413 | – | 55.3 ± 0.4
298.15 K, m1 = 0.02239 | – | 53.2 ± 0.4
298.15 K, m1 = 0.02818 | – | 52.4 ± 0.4
298.15 K, m1 = 0.03162 | – | 52.1 ± 0.4
298.15 K, m1 = 0.03981 | – | 52.1 ± 0.4
298.15 K, m1 = 0.05 | 997.07 ± 0.11 | –
298.15 K, m1 = 0.05012 | – | 51.9 ± 0.4
298.15 K, m1 = 0.0631 | – | 51.9 ± 0.4
303.15 K, m1 = 0.0005 | 995.58 ± 0.11 | –
303.15 K, m1 = 0.002 | – | 65.5 ± 0.4
303.15 K, m1 = 0.00251 | – | 64 ± 0.4
303.15 K, m1 = 0.00316 | – | 62.5 ± 0.4
303.15 K, m1 = 0.00398 | – | 61 ± 0.4
303.15 K, m1 = 0.00501 | – | 59.5 ± 0.4
303.15 K, m1 = 0.00708 | – | 57.5 ± 0.4
303.15 K, m1 = 0.01 | – | 55.8 ± 0.4
303.15 K, m1 = 0.01413 | – | 53 ± 0.4
303.15 K, m1 = 0.02239 | – | 51 ± 0.4
303.15 K, m1 = 0.02818 | – | 50.8 ± 0.4
303.15 K, m1 = 0.03162 | – | 50.7 ± 0.4
303.15 K, m1 = 0.03981 | – | 50.7 ± 0.4
303.15 K, m1 = 0.05 | 996.92 ± 0.11 | –
303.15 K, m1 = 0.05012 | – | 50.6 ± 0.4
303.15 K, m1 = 0.0631 | – | 50.6 ± 0.4
308.15 K, m1 = 0.0005 | 995.44 ± 0.11 | –
308.15 K, m1 = 0.002 | – | 63.1 ± 0.4
308.15 K, m1 = 0.00251 | – | 62.4 ± 0.4
308.15 K, m1 = 0.00316 | – | 60.2 ± 0.4
308.15 K, m1 = 0.00398 | – | 59.1 ± 0.4
308.15 K, m1 = 0.00501 | – | 57.1 ± 0.4
308.15 K, m1 = 0.00708 | – | 55.3 ± 0.4
308.15 K, m1 = 0.01 | – | 53.6 ± 0.4
308.15 K, m1 = 0.01429 | – | 51.2 ± 0.4
308.15 K, m1 = 0.02239 | – | 49.4 ± 0.4
308.15 K, m1 = 0.02818 | – | 48.8 ± 0.4
308.15 K, m1 = 0.03162 | – | 48.3 ± 0.4
308.15 K, m1 = 0.03981 | – | 48.3 ± 0.4
308.15 K, m1 = 0.05 | 996.78 ± 0.11 | –
308.15 K, m1 = 0.05012 | – | 48.3 ± 0.4
308.15 K, m1 = 0.0631 | – | 48.3 ± 0.4
313.15 K, m1 = 0.0005 | 995.3 ± 0.11 | –
313.15 K, m1 = 0.002 | – | 61.8 ± 0.4
313.15 K, m1 = 0.00251 | – | 60.2 ± 0.4
313.15 K, m1 = 0.00316 | – | 58.3 ± 0.4
313.15 K, m1 = 0.00398 | – | 57.1 ± 0.4
313.15 K, m1 = 0.00501 | – | 55.5 ± 0.4
313.15 K, m1 = 0.00708 | – | 53.6 ± 0.4
313.15 K, m1 = 0.01 | – | 51.7 ± 0.4
313.15 K, m1 = 0.01429 | – | 50 ± 0.4
313.15 K, m1 = 0.02239 | – | 47.7 ± 0.3
313.15 K, m1 = 0.02818 | – | 46.8 ± 0.3
313.15 K, m1 = 0.03162 | – | 46.5 ± 0.3
313.15 K, m1 = 0.03981 | – | 46.4 ± 0.3
313.15 K, m1 = 0.05 | 996.64 ± 0.11 | –
313.15 K, m1 = 0.05012 | – | 46.3 ± 0.3
313.15 K, m1 = 0.0631 | – | 46.3 ± 0.3

CCCCCCCCCCCCCCCC[n+]1ccccc1.[Br-] [1-hexadecylpyridinium bromide] + O
Details | electrical conductivity, 298.15 K [S/m] | electrical conductivity, 303.15 K [S/m] | electrical conductivity, 308.15 K [S/m] | electrical conductivity, 313.15 K [S/m] | mass density, 298.15 K [kg/m3] | mass density, 303.15 K [kg/m3] | mass density, 308.15 K [kg/m3] | mass density, 313.15 K [kg/m3]
m1 = 0.0005 | – | – | – | – | 996.54 ± 0.11 | 995.89 ± 0.11 | 995.18 ± 0.11 | 994.58 ± 0.11
m1 = 0.001 | 0.000196 ± 1.3e-05 | 0.000252 ± 1.6e-05 | 0.000326 ± 2.1e-05 | 0.000401 ± 2.6e-05 | – | – | – | –
m1 = 0.0015 | 0.000304 ± 1.9e-05 | 0.000359 ± 2.3e-05 | 0.000436 ± 2.8e-05 | 0.000536 ± 3.4e-05 | – | – | – | –
m1 = 0.0025 | 0.00044 ± 2.8e-05 | 0.000505 ± 3.2e-05 | 0.000566 ± 3.6e-05 | 0.000684 ± 4.4e-05 | – | – | – | –
m1 = 0.004 | 0.000742 ± 4.7e-05 | 0.000807 ± 5.1e-05 | 0.000884 ± 5.6e-05 | 0.00101 ± 6.4e-05 | – | – | – | –
m1 = 0.005 | 0.00105 ± 6.7e-05 | 0.0011 ± 7e-05 | 0.00109 ± 7e-05 | 0.00135 ± 8.6e-05 | – | – | – | –
m1 = 0.007 | 0.00135 ± 8.6e-05 | 0.00141 ± 8.9e-05 | 0.00148 ± 9.4e-05 | 0.00156 ± 9.9e-05 | – | – | – | –
m1 = 0.009 | 0.00174 ± 0.00011 | 0.0018 ± 0.00011 | 0.00187 ± 0.00012 | 0.00202 ± 0.00013 | – | – | – | –
m1 = 0.01 | 0.00192 ± 0.00012 | 0.00201 ± 0.00013 | 0.00206 ± 0.00013 | 0.00236 ± 0.00015 | – | – | – | –
m1 = 0.013 | 0.00236 ± 0.00015 | 0.00241 ± 0.00015 | 0.00247 ± 0.00016 | 0.00259 ± 0.00017 | – | – | – | –
m1 = 0.015 | 0.00263 ± 0.00017 | 0.00271 ± 0.00017 | 0.00276 ± 0.00018 | 0.00298 ± 0.00019 | – | – | – | –
m1 = 0.018 | 0.00313 ± 0.0002 | 0.0031 ± 0.0002 | 0.00318 ± 0.0002 | 0.00336 ± 0.00021 | – | – | – | –
m1 = 0.02 | 0.00345 ± 0.00022 | 0.0035 ± 0.00022 | 0.00349 ± 0.00022 | 0.00384 ± 0.00024 | – | – | – | –
m1 = 0.024 | 0.00403 ± 0.00026 | 0.00411 ± 0.00026 | 0.00416 ± 0.00026 | 0.00469 ± 0.0003 | – | – | – | –
m1 = 0.027 | 0.00443 ± 0.00028 | 0.00451 ± 0.00029 | 0.00458 ± 0.00029 | 0.00497 ± 0.00032 | – | – | – | –
m1 = 0.05 | – | – | – | – | 998.25 ± 0.11 | 997.33 ± 0.11 | 996.34 ± 0.11 | 995.46 ± 0.11

CCCCCCCCCCCCOS(=O)(=O)[O-].[Na+] [sodium dodecyl sulfate] + O
Details | electrical conductivity, 298.15 K [S/m] | electrical conductivity, 303.15 K [S/m] | electrical conductivity, 308.15 K [S/m] | electrical conductivity, 313.15 K [S/m] | mass density, 298.15 K [kg/m3] | mass density, 303.15 K [kg/m3] | mass density, 308.15 K [kg/m3] | mass density, 313.15 K [kg/m3]
m1 = 0.0005 | – | – | – | – | 994.78 ± 0.11 | 994.12 ± 0.11 | 993.69 ± 0.11 | 993.15 ± 0.11
m1 = 0.00086 | 0.000225 ± 1.4e-05 | 0.000289 ± 1.8e-05 | 0.000342 ± 2.2e-05 | 0.000403 ± 2.6e-05 | – | – | – | –
m1 = 0.00135 | 0.000346 ± 2.2e-05 | 0.000386 ± 2.5e-05 | 0.000457 ± 2.9e-05 | 0.000515 ± 3.3e-05 | – | – | – | –
m1 = 0.00161 | 0.000432 ± 2.8e-05 | 0.000497 ± 3.2e-05 | 0.000568 ± 3.6e-05 | 0.00063 ± 4e-05 | – | – | – | –
m1 = 0.00172 | 0.000542 ± 3.4e-05 | 0.000598 ± 3.8e-05 | 0.000663 ± 4.2e-05 | 0.000713 ± 4.5e-05 | – | – | – | –
m1 = 0.0023 | 0.000768 ± 4.9e-05 | 0.000813 ± 5.2e-05 | 0.00087 ± 5.5e-05 | 0.000946 ± 6e-05 | – | – | – | –
m1 = 0.00342 | 0.000984 ± 6.3e-05 | 0.00105 ± 6.7e-05 | 0.00113 ± 7.2e-05 | 0.0012 ± 7.7e-05 | – | – | – | –
m1 = 0.005 | 0.00144 ± 9.2e-05 | 0.0015 ± 9.6e-05 | 0.00159 ± 0.0001 | 0.00169 ± 0.00011 | – | – | – | –
m1 = 0.00681 | 0.00177 ± 0.00011 | 0.00193 ± 0.00012 | 0.00189 ± 0.00012 | 0.00207 ± 0.00013 | – | – | – | –
m1 = 0.0075 | 0.00203 ± 0.00013 | 0.00211 ± 0.00013 | 0.0022 ± 0.00014 | 0.00233 ± 0.00015 | – | – | – | –
m1 = 0.0108 | 0.00264 ± 0.00017 | 0.00269 ± 0.00017 | 0.00279 ± 0.00018 | 0.00295 ± 0.00019 | – | – | – | –
m1 = 0.01283 | 0.00293 ± 0.00019 | 0.00299 ± 0.00019 | 0.00305 ± 0.00019 | 0.00322 ± 0.0002 | – | – | – | –
m1 = 0.01582 | 0.00335 ± 0.00021 | 0.0034 ± 0.00022 | 0.00353 ± 0.00022 | 0.00373 ± 0.00024 | – | – | – | –
m1 = 0.01974 | 0.00392 ± 0.00025 | 0.00398 ± 0.00025 | 0.00412 ± 0.00026 | 0.00432 ± 0.00027 | – | – | – | –
m1 = 0.02351 | 0.00445 ± 0.00028 | 0.0044 ± 0.00028 | 0.00455 ± 0.00029 | 0.00468 ± 0.0003 | – | – | – | –
m1 = 0.02665 | 0.00483 ± 0.00031 | 0.00487 ± 0.00031 | 0.00487 ± 0.00031 | 0.00507 ± 0.00032 | – | – | – | –
m1 = 0.05 | – | – | – | – | 994.74 ± 0.11 | 994.19 ± 0.11 | 993.64 ± 0.11 | 993.11 ± 0.11
